Experimental data taken from patent US12162840B2, “Herbicidal compositions” (SYNGENTA PARTICIPATIONS AG, priority 2018, dated 2024).

Test system: cool season plant species
Assay: B2 Post-emergence efficacy Test 2, cool season plant species
Format: in vivo
Details: 15 days after application, 0=no damage, 100=total kill
In short: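 Herbicidal effect rated visually 0 (no damage) to 100 (complete kill) at 15 days post-treatment. Post-emergence spray at 12 days used an IF50 formulation with 0.2% v/v Genapol XO80 adjuvant; glasshouse 24/18 or 20/16 °C, 16 h light, 65% humidity.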

SMILES: Cc1nn(C)c(=O)c(-c2c(F)ccc(Cl)c2CCc2ccc(Cl)cc2)c1OC(=O)C(C)C [Compound 1.089]
- Herbicidal activity (0-100 scale) ALOMY (15 g/Ha): 20
- Herbicidal activity (0-100 scale) ALOMY (30 g/Ha): 50
- Herbicidal activity (0-100 scale) ALOMY (60 g/Ha): 50
- Herbicidal activity (0-100 scale) ALOMY (125 g/Ha): 80
- Herbicidal activity (0-100 scale) ALOMY (250 g/Ha): 80
- Herbicidal activity (0-100 scale) ALOMY (500 g/Ha): 90
- Herbicidal activity (0-100 scale) AVEFA (15 g/Ha): 30
- Herbicidal activity (0-100 scale) AVEFA (30 g/Ha): 70
- Herbicidal activity (0-100 scale) AVEFA (60 g/Ha): 70
- Herbicidal activity (0-100 scale) AVEFA (125 g/Ha): 80
- Herbicidal activity (0-100 scale) AVEFA (250 g/Ha): 90
- Herbicidal activity (0-100 scale) AVEFA (500 g/Ha): 90
- Herbicidal activity (0-100 scale) BEAVA (15 g/Ha): 90
- Herbicidal activity (0-100 scale) BEAVA (30 g/Ha): 80
- Herbicidal activity (0-100 scale) BEAVA (60 g/Ha): 80
- Herbicidal activity (0-100 scale) BEAVA (125 g/Ha): 80
- Herbicidal activity (0-100 scale) BEAVA (250 g/Ha): 90
- Herbicidal activity (0-100 scale) BEAVA (500 g/Ha): 90
- Herbicidal activity (0-100 scale) BROTE (15 g/Ha): 0
- Herbicidal activity (0-100 scale) BROTE (30 g/Ha): 0
- Herbicidal activity (0-100 scale) BROTE (60 g/Ha): 10
- Herbicidal activity (0-100 scale) BROTE (125 g/Ha): 30
- Herbicidal activity (0-100 scale) BROTE (250 g/Ha): 60
- Herbicidal activity (0-100 scale) BROTE (500 g/Ha): 70
- Herbicidal activity (0-100 scale) BRSNN (15 g/Ha): 80
- Herbicidal activity (0-100 scale) BRSNN (30 g/Ha): 80
- Herbicidal activity (0-100 scale) BRSNN (60 g/Ha): 90
- Herbicidal activity (0-100 scale) BRSNN (125 g/Ha): 90
- Herbicidal activity (0-100 scale) BRSNN (250 g/Ha): 90
- Herbicidal activity (0-100 scale) BRSNN (500 g/Ha): 90
- Herbicidal activity (0-100 scale) CHEAL (15 g/Ha): 80
- Herbicidal activity (0-100 scale) CHEAL (30 g/Ha): 90
- Herbicidal activity (0-100 scale) CHEAL (60 g/Ha): 90
- Herbicidal activity (0-100 scale) CHEAL (125 g/Ha): 100
- Herbicidal activity (0-100 scale) CHEAL (250 g/Ha): 100
- Herbicidal activity (0-100 scale) CHEAL (500 g/Ha): 100
- Herbicidal activity (0-100 scale) GALAP (15 g/Ha): 10
- Herbicidal activity (0-100 scale) GALAP (30 g/Ha): 20
- Herbicidal activity (0-100 scale) GALAP (125 g/Ha): 30
- Herbicidal activity (0-100 scale) GALAP (250 g/Ha): 30
- Herbicidal activity (0-100 scale) GALAP (500 g/Ha): 90
- Herbicidal activity (0-100 scale) HORVW (15 g/Ha): 10
- Herbicidal activity (0-100 scale) HORVW (30 g/Ha): 10
- Herbicidal activity (0-100 scale) HORVW (60 g/Ha): 20
- Herbicidal activity (0-100 scale) HORVW (125 g/Ha): 20
- Herbicidal activity (0-100 scale) HORVW (250 g/Ha): 30
- Herbicidal activity (0-100 scale) HORVW (500 g/Ha): 60
- Herbicidal activity (0-100 scale) KCHSC (15 g/Ha): 10
- Herbicidal activity (0-100 scale) KCHSC (30 g/Ha): 20
- Herbicidal activity (0-100 scale) KCHSC (60 g/Ha): 50
- Herbicidal activity (0-100 scale) KCHSC (125 g/Ha): 60
- Herbicidal activity (0-100 scale) KCHSC (250 g/Ha): 60
- Herbicidal activity (0-100 scale) KCHSC (500 g/Ha): 60
- Herbicidal activity (0-100 scale) LOLPE (15 g/Ha): 40
- Herbicidal activity (0-100 scale) LOLPE (30 g/Ha): 70
- Herbicidal activity (0-100 scale) LOLPE (60 g/Ha): 80
- Herbicidal activity (0-100 scale) LOLPE (125 g/Ha): 90
- Herbicidal activity (0-100 scale) LOLPE (250 g/Ha): 90
- Herbicidal activity (0-100 scale) LOLPE (500 g/Ha): 90
- Herbicidal activity (0-100 scale) POAAN (15 g/Ha): 20
- Herbicidal activity (0-100 scale) POAAN (30 g/Ha): 40
- Herbicidal activity (0-100 scale) POAAN (60 g/Ha): 70
- Herbicidal activity (0-100 scale) POAAN (125 g/Ha): 90
- Herbicidal activity (0-100 scale) POAAN (250 g/Ha): 80
- Herbicidal activity (0-100 scale) POAAN (500 g/Ha): 70
- Herbicidal activity (0-100 scale) SINAR (15 g/Ha): 70
- Herbicidal activity (0-100 scale) SINAR (30 g/Ha): 80
- Herbicidal activity (0-100 scale) SINAR (60 g/Ha): 90
- Herbicidal activity (0-100 scale) SINAR (125 g/Ha): 90
- Herbicidal activity (0-100 scale) SINAR (250 g/Ha): 90
- Herbicidal activity (0-100 scale) SINAR (500 g/Ha): 90
- Herbicidal activity (0-100 scale) STEME (15 g/Ha): 90
- Herbicidal activity (0-100 scale) STEME (30 g/Ha): 90
- Herbicidal activity (0-100 scale) STEME (60 g/Ha): 90
- Herbicidal activity (0-100 scale) STEME (125 g/Ha): 90
- Herbicidal activity (0-100 scale) STEME (250 g/Ha): 90
- Herbicidal activity (0-100 scale) STEME (500 g/Ha): 90
- Herbicidal activity (0-100 scale) TRZAW (15 g/Ha): 0
- Herbicidal activity (0-100 scale) TRZAW (30 g/Ha): 0
- Herbicidal activity (0-100 scale) TRZAW (60 g/Ha): 20
- Herbicidal activity (0-100 scale) TRZAW (125 g/Ha): 30
- Herbicidal activity (0-100 scale) TRZAW (250 g/Ha): 60
- Herbicidal activity (0-100 scale) TRZAW (500 g/Ha): 70
- Herbicidal activity (0-100 scale) VERPE (15 g/Ha): 70
- Herbicidal activity (0-100 scale) VERPE (30 g/Ha): 80
- Herbicidal activity (0-100 scale) VERPE (60 g/Ha): 90
- Herbicidal activity (0-100 scale) VERPE (125 g/Ha): 90
- Herbicidal activity (0-100 scale) VERPE (250 g/Ha): 100
- Herbicidal activity (0-100 scale) VERPE (500 g/Ha): 100
